Series [1] in a line: Rat pharmacokinetics, single oral dose, non-cassette. The format is in vivo. The following applies: for half-life: rat.
Procedure: All rat pharmacokinetics data is non-cassette dosed. Non-cassette dosed pharmacokinetics means that each compound was dosed individually (i.e. not part of a cassette of compounds). Cassette-dosing is a technique in which 2 or more compounds are simultaneously administered to an animal and the pharmacokinetics of each compound is monitored individually even though it is in the same animal/blood sample.
At each sample collection time, blood samples were collected from three rats by cardiac puncture and then processed into plasma. […] Plasma drug concentrations were then determined by liquid chromatography-mass spectrometry methods. The mean plasma concentrations from each of the three samples collected at each time point were then plotted as a function of time. This process was repeated for each compound tested.
A short description of series [2]: Canine cassette-dosed pharmacokinetics. The format is in vivo, canines (beagles). The following applies: for half-life: beagle, dog, plasma, 2 mg/kg; for increase in plasma half-life in canines: versus 4-methylphenyl compound.
Procedure: Cassette-dosing is a technique in which 2 or more compounds are simultaneously administered to an animal and the pharmacokinetics of each compound is monitored individually even though it is in the same animal/blood sample.
Cassette-dosing refers to the practice of dosing 2 or more compounds simultaneously to animals. […] Blood samples were collected over time intervals ranging from 0 to 50 days into EDTA tubes and plasma harvested. Plasma drug concentrations were then determined for each compound in the cassette by liquid chromatography-mass spectrometry methods. This process was repeated for each group of compounds (cassette) tested.
A short description of series [3]: Canine pharmacokinetics, compounds dosed individually. It is filed as in vivo, canines (beagles). Conditions: beagle, dog, plasma, oral 2 or 4 mg/kg, read-out: Canine t1/2 (converted).
Procedure: In this example, each compound was administered individually to canines (not cassette dosed). […] Plasma drug concentrations were then determined by liquid chromatography-mass spectrometry methods. This process was repeated for each compound tested.
Another series deals with hCOX-1 (Homo sapiens, UniProt P23219). Briefly: hCOX-1 enzyme inhibition (IC50). It is filed as biochemical. Conditions: repeated experimental results listed separately.
Chain of hCOX-1 (P23219 24-599): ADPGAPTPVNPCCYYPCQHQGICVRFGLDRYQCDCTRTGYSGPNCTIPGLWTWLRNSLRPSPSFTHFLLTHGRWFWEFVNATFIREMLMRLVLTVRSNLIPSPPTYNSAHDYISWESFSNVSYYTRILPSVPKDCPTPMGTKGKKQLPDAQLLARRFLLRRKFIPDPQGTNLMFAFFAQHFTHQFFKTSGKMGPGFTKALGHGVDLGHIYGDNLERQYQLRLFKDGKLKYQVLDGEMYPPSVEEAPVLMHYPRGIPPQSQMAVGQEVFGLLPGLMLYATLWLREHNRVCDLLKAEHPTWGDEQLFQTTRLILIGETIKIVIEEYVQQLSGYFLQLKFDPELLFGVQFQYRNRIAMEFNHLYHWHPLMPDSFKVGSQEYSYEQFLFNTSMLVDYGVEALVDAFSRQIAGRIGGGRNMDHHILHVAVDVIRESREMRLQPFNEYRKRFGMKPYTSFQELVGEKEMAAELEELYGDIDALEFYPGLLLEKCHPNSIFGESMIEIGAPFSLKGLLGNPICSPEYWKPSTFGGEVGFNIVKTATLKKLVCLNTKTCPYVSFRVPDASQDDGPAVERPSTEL
The target of the next series is T1, hCOX-2 (Homo sapiens, UniProt P35354).
T1 sequence (P35354 18-604): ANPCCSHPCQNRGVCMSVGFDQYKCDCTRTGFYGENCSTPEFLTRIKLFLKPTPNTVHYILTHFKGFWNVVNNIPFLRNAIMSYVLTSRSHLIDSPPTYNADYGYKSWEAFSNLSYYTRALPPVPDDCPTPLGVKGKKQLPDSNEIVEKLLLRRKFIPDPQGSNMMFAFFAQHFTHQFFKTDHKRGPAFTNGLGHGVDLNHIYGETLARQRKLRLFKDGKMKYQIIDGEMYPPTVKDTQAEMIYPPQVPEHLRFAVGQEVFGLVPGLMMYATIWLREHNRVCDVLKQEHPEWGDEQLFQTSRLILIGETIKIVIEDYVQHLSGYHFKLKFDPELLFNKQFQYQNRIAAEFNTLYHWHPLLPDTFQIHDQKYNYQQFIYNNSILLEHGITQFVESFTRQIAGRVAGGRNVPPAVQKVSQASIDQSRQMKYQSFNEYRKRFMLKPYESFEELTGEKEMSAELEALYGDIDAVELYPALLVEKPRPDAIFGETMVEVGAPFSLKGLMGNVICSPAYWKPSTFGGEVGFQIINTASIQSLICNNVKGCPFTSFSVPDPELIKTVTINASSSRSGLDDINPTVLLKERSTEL
Briefly: hCOX-2 enzyme inhibition (IC50) and selectivity. It is filed as biochemical. The following applies: for hCOX selectivity hCOX-1/hCOX-2: Cox-1 IC50/Cox-2 IC50; for IC50: repeated experimental results listed separately.

For series [4], the system named is adjuvant-induced arthritis in male Lewis rats. Briefly: Adjuvant-induced arthritis in rat paws (paw volume). The format is in vivo. The following applies: single oral dose, 3 mg/kg (FIG. 2) / 3 mg/mL, followed 28 days. Here is the method:
This experiment was performed following a modified method of Connor, J. et al. (European J. Pharmacology, 1995, 273:15-24). Briefly, arthritis was induced in pathogen-free, male Lewis rats by an intadermal injection of 20 mg/ml Mycobacterium butyricum suspended in squalene in three sites at the base of the tail. The injection of mycobacteria produces a systemic autoimmune response and subsequent chronic inflammation of the joints with many similarities to rheumatoid arthritis. The induced arthritis was allowed to develop for 14 days at which time animals were given a single oral dose of a Cox-2 selective inhibitor at […]. Effectiveness was assessed by the decrease in rat paw edema (paw volume) for 28 days following the Cox-2 inhibitor dose. Paw volume was determined using a water displacement plethysmometer. To gage the drug response, the paw volumes of rats treated with Cox-2 selective inhibitors were compared to normal healthy rats without induced arthritis and without drug (normal-control group) and rats with induced arthritis but without drug (adjuvant-control group).
All of the compounds tested in this model were effective for a minimum of 5 days.

For series [5] the following is noted: cited from earlier work.
[6] abbreviates: plasma, po, 2 mg/kg, plasma, oral 2 mg/kg, non-cassette dosed, read-out: Rat t1/2 (converted).
[7] abbreviates: po, oral 2 mg/kg each compound, cassette, read-out: Canine Cassette-dosed t1/2 (converted).

Values joined by “and” are separate entries in the source; they are usually repeats but may differ in a detail not shown here. Equal entries are not always repeated. Where two headings read alike, the source gives them in different places. A value given as a limit tells only on which side of the number the result lay.

Procedure for hCOX-1: (§1) The specificity of a given extended duration Cox-2 inhibitor is measured by determining the IC50 or EC50 for each compound described above.
Procedure for hCOX-2: as §1

For the molecule `NS(=O)(=O)c1ccc(-n2nc(C(F)(F)F)cc2-c2ccc(Cl)cc2Cl)cc1` [4-[5-(2,4-[dichlorophenyl)-3-(trifluoromethyl)-1H-pyrazol-1-yl]benzenesulfonamide], the results for the half-life in series [1] (setting [6]), in series [2] (setting [7]) and in series [3] were 97 h, about 771 h and 466 h, respectively.

As a reminder, the IC50 is the concentration at which inhibition is half-maximal. High values mean a need for much substance, low ones inhibition by little substance. Turning to `NS(=O)(=O)c1ccc(-n2nc(C(F)(F)F)cc2-c2ccc(F)cc2F)cc1` [4-[5-(2,4-[difluorophenyl)-3-(trifluoromethyl)-1H-pyrazol-1-yl]benzenesulfonamide], the IC50 on hCOX-1 is 38400 nM and 14000 nM and 22400 nM; at hCOX-2 it was 149 nM and 36 nM and < 137 nM. Moreover, the “hCOX selectivity hCOX-1/hCOX-2” value at hCOX-2 amounted to 393. The half-life is 25 h in series [1] (setting [6]), about 716 h in series [2] (setting [7]) and 233 h in series [3].

As to `NS(=O)(=O)c1ccc(-n2nc(C(F)(F)F)cc2-c2ccc(Cl)c(Cl)c2)cc1` [4-[5-(3,4-dichlorophenyl)-3-(trifluoromethyl)-1H-pyrazol-1-yl]benzenesulfonamide], the half-life is 157 h in series [1] (setting [6]), about 830 h in series [2] (setting [7]) and 762 h in series [3]. The “effectiveness in minimizing rat paw volume over longer time periods” value in series [4] is “effective extended duration compounds”.

As to `NS(=O)(=O)c1ccc(-n2nc(C(F)(F)F)cc2-c2ccc(F)c(F)c2)cc1` [4-[5-(3,4-difluorophenyl)-3-(trifluoromethyl)-1H-pyrazol-1-yl]benzenesulfonamide], the figures for the half-life in series [1] (setting [6]), in series [2] (setting [7]) and in series [3] were 59 h, about 881 h and 500 h, respectively.

As for `COc1c(Cl)cc(-c2cc(C(F)(F)F)nn2-c2ccc(S(N)(=O)=O)cc2)cc1Cl` [4-[5-(3,5-dichloro-4-methoxyphenyl)-3-(trifluoromethyl)-1H-pyrazol-1-yl]benzenesulfonamide], the half-inhibitory concentration (IC50) on hCOX-2 was 54.7 nM and 39 nM. Besides, in series [2] (setting [7]), the half-life is about 17 h.

For the molecule `COc1ccc(-c2cc(C(F)(F)F)nn2-c2ccc(S(N)(=O)=O)cc2)cc1Cl` [4-[5-(3-chloro-4-methoxyphenyl)-3-(trifluoromethyl)-1H-pyrazol-1-yl]benzenesulfonamide], the half-life in series [2] (setting [7]) was about 22 h.

Turning to `Cc1ccc(-c2cc(C(F)(F)F)nn2-c2ccc(S(N)(=O)=O)cc2)cc1Cl` [4-[5-(3-chloro-4-methylphenyl)-3-(trifluoromethyl)-1H-pyrazol-1-yl]benzenesulfonamide], the IC50 is 57000 nM and 12500 nM and 14300 nM against hCOX-1; 24.9 nM and < 137 nM and 7 nM against hCOX-2. Moreover, at hCOX-2, the “hCOX selectivity hCOX-1/hCOX-2” value was 2289. Also, the figures for the half-life in series [1] (setting [6]) and in series [2] (setting [7]) were 5.1 h and 17 h, respectively.

As for `COc1cc(-c2cc(C(F)(F)F)nn2-c2ccc(S(N)(=O)=O)cc2)ccc1Br` [4-[5-(4-bromo-3-methoxyphenyl)-3-(trifluoromethyl)-1H-pyrazol-1-yl]benzenesulfonamide], the IC50 against hCOX-1 is 30300 nM and 35300 nM. Moreover, on hCOX-2, the “hCOX selectivity hCOX-1/hCOX-2” value is on record as 669; the IC50 is 45.3 nM and < 137 nM. The half-life in series [3] is 71 h.

Consider `Cc1cc(-c2cc(C(F)(F)F)nn2-c2ccc(S(N)(=O)=O)cc2)ccc1Cl` [4-[5-(4-chloro-3-methylphenyl)-3-(trifluoromethyl)-1H-pyrazol-1-yl]benzenesulfonamide], for which the IC50 was 4920 nM against hCOX-1 and under 137 nM against hCOX-2. Also, the half-life in series [2] (setting [7]) was about 44 h; in series [3], 12 h.

As for `NS(=O)(=O)c1ccc(-n2nc(C(F)(F)F)cc2-c2ccc(Cl)cc2)cc1` [4-[5-(4-chlorophenyl)-3-(trifluoromethyl)-1H-pyrazol-1-yl]benzenesulfonamide], the half-life is 192 h in series [1] (plasma, oral, 2 mg/kg, single dosage administration, read-out: Rat half-life (converted)); 193 h in series [1] (setting [6]); about 1180 h in series [2] (oral, cassette-dosed, single dosage, read-out: canine half-life (converted)); about 1190 h in series [2] (setting [7]). The molecule further had a Rat half-life in series [1] (single dosage administration) of at most 190 h. Also, in series [2] (cassette-dosed, single dosage), the canine half-life was at most 1180 h. For the same molecule, the “increase in plasma half-life in canines” value in series [2] (fast metabolizing subtype) turned out to be 207 fold; in series [2] (slow metabolizing subtype) it was 691 fold. The “duration of therapeutically effective blood concentration” value in series [2] (without increased or additional dosing) is on record as “at least 24 hours”.

In the case of `NS(=O)(=O)c1ccc(-n2nc(C(F)(F)F)cc2-c2ccc(F)cc2)cc1` [4-[5-(4-fluorophenyl)-3-(trifluoromethyl)-1H-pyrazol-1-yl]benzenesulfonamide], the half-life in series [1] (setting [6]) was 32 h; in series [2] (setting [7]), 572 h; in series [3], 289 h.

With `COc1c(C)cc(-c2cc(C(F)(F)F)nn2-c2ccc(S(N)(=O)=O)cc2)cc1C` [4-[5-(4-methoxy-3,5-dimethylphenyl)-3-(trifluoromethyl)-1H-pyrazol-1-yl]benzenesulfonamide], the IC50 is over 100000 nM against hCOX-1 and 80 nM against hCOX-2. For the same molecule, the half-life in series [2] (setting [7]) was about 18 h.

For the molecule `COc1ccc(-c2cc(C(F)(F)F)nn2-c2ccc(S(N)(=O)=O)cc2)cc1C` [4-[5-(4-methoxy-3-methylphenyl)-3-(trifluoromethyl)-1H-pyrazol-1-yl]benzenesulfonamide], the half-life in series [2] (setting [7]) is about 36 h.

On to `COc1ccc(-c2cc(C(F)(F)F)nn2-c2ccc(S(N)(=O)=O)cc2)cc1` [4-[5-(4-methoxyphenyl)-3-(trifluoromethyl)-1H-pyrazol-1-yl]benzenesulfonamide], for which the half-life in series [2] (setting [7]) is about 21 h.

Consider `Cc1ccc(-c2cc(C(F)(F)F)nn2-c2ccc(S(N)(=O)=O)cc2)cc1` [4-[5-(4-methylphenyl)-3-(trifluoromethyl)-1H-pyrazol-1-yl]benzenesulfonamide], for which the half-life in series [1] (female, in vivo, female rats, non-cassette dosed, comparison data, read-out: Rat t1/2 in Female (converted)) was 14 h; in series [1] (male, in vivo, male rats, non-cassette dosed, comparison data, read-out: Rat t1/2 in Male (converted)) it was 3.73 h. In series [5] (comparison data for the 4-methylphenyl compound), the “Canine t1/2” value was 1.72 to 5.18 h. Also, the “effective half-life in canines” value in series [5] (fast metabolizing subtype (so in the source)) was 5.72 h; in series [5] (slow metabolizing subtype (so in the source)), 1.72 h.

Values taken from patent publication US20050131028A1, “Methods and compositions for the extended duration treatment of pain, inflammation and inflammation-related disorders” (Pharmacia Corporation, priority 2003, published 2005).
